Test results published in US20090076029A1 (Palatin Technologies, Inc., priority 2007, published 2009).
“Also recorded” adds a separate entry of the source. Like-named read-outs stand apart in the source and are kept apart here.

How the values were obtained:
[1] = target: MC1-R; experiment: Competitive inhibition assay using [I125]-NDP-α-MSH, MC1-R membranes; assay type: binding, mouse; details: for Inhibition at 1 μM (NDP-α-MSH) MC1-R: 1 μM compound
[2] = tested on: T1, hMC4-R; experiment: Competitive inhibition assay using [I125]-NDP-α-MSH, hMC4-R membranes; assay type: binding, human; details: for Inhibition at 1 μM (NDP-α-MSH) MC4-R: 1 μM compound; for attenuation of binding of α-MSH and AgRP to MC4-R: both ligands (NDP-α-MSH and AgRP), summary
T1 construct: expressed in transfected cells; host or cells: HEK-293

[3] = tested on: T1, hMC4-R; experiment: cAMP functional assay in HEK-293 cells expressing MC4-R (agonist, neutral antagonist/Schild); assay type: cell-based, human; details: for intrinsic activity at MC4-R: NDP-α-MSH maximal stimulation = 1.0; for functional status at MC4-R: mostly at 1 μM
How it was run: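 Cells in EBSS/HEPES pH 7.5 with 0.3 mM IBMX, exposed to compound (0.05-5000 nM, 1% DMSO) for 1 h at 37 °C; cAMP by EIA, EC50 by nonlinear regression. Antagonism: 30 min compound pre-incubation, then 1 nM NDP-α-MSH for 1 h; Schild analysis over 0.005-5000 nM agonist gives pA2.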

[4] = tested on: T2, hMC3-R; experiment: Competitive inhibition assay using [I125]-NDP-α-MSH, hMC3-R membranes; assay type: binding, human; details: for Inhibition at 1 μM (NDP-α-MSH) MC3-R: 1 μM compound; for Ki: read-out: Ki (nM) (NDP-α-MSH) MC3-R
T2 construct: expressed in transfected cells; host or cells: HEK-293
How it was run: (§1)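 Membranes from HEK-293 cells expressing hMC3-R, hMC4-R or hMC5-R, or from mouse B-16 melanoma cells (MC1-R), with 0.2–0.4 nM [125I]-NDP-α-MSH in 50 mM HEPES pH 7.2 with Mg2+, Ca2+, K+. Test compound typically 1 μM; 90 min, room temperature; filtration, gamma counting. Percent inhibition vs specific binding (1 μM α-MSH), triplicate mean, negatives as 0%.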

[5] = tested on: T1, hMC4-R; assay type: binding, human; details: for Inhibition at 1 μM (AgRP) MC4-R: 1 μM compound
How it was run: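 Membranes from hMC4-R-expressing cells incubated 1 h at 37 °C with 0.2 nM [I^125]-AgRP (83-132) and increasing compound in 25 mM HEPES pH 7.5, 100 mM NaCl, 2 mM CaCl2, 2 mM MgCl2, 0.3 mM 1,10-phenanthroline, 0.5% BSA. Filtration, gamma counting; specific binding kept ≤10% of added counts.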

[6] = tested on: T3, hMC5-R; experiment: Competitive inhibition assay using [I125]-NDP-α-MSH, hMC5-R membranes; assay type: binding, human; details: for Inhibition at 1 μM (NDP-α-MSH) MC5-R: 1 μM compound; for Ki: read-out: Ki (nM) (NDP-α-MSH) MC5-R
T3 construct: expressed in transfected cells; host or cells: HEK-293
How it was run: as §1

[7] = target: T4, MC1-R; experiment: Competitive inhibition assay using [I125]-NDP-α-MSH, MC1-R membranes; assay type: binding, mouse; details: for Inhibition at 1 μM (NDP-α-MSH) MC1-R: 1 μM compound
T4 construct: other: 1 μM compound

[8] = tested on: T2, hMC3-R; experiment: cAMP functional assay, HEK-293 cells expressing hMC3-R; assay type: cell-based, human; details: cAMP assay at 1 μM
Experimental: General method for EC50 determination in functional activity assay. Functional evaluation of compounds at melanocortin receptors was performed by measuring the accumulation of intracellular cAMP in HEK-293 cells expressing hMC3-R, hMC4-R or hMC5-R, and in B-16 mouse melanoma cells expressing MC1-R. Cells suspended in Earle's Balanced Salt Solution containing 10 mM HEPES (pH 7.5), 5 mM MgCl2, 1 mM glutamine, 0.1% albumin and 0.6 mM 3-isobutyl-1-methyl-xanthine, a phosphodiesterase inhibitor, were plated in 96 well plates at a density of 0.5×10^5 cells per well. Cells were incubated with the test compounds in the presence or absence of α-MSH for 1 hour at 37° C. cAMP levels in the cell lysates were measured using an EIA kit (Amersham). Data analysis and EC50 values were determined using nonlinear regression analysis with Prism Graph-Pad software.
Functional status. The agonist/antagonist status with respect to MC1-R, MC-3R, MC4-R and MC5-R of certain compounds of the invention was determined.

[9] = tested on: T3, hMC5-R; experiment: cAMP functional assay, HEK-293 cells expressing hMC5-R; assay type: cell-based, human; details: cAMP assay at 1 μM
[10] = tested on: T5, MC1-R; experiment: cAMP functional assay, B-16 mouse melanoma cells expressing MC1-R; assay type: cell-based; details: cAMP assay at 1 μM
T5 construct: from B-16 mouse melanoma cells (containing MC1-R); endogenous in cells; host or cells: B-16 mouse melanoma cells

[11] = tested on: T6, MC4-R; assay type: cell-based; details: HEK-293 cells expressing MC4-R
T6 construct: expressed in transfected cells; host or cells: HEK-293
From the text: Assay for Antagonists of AgRP in HEK-293/MC4-R Cells stimulated with Forskolin. […] AgRP causes a decrease in the basal adenylyl cyclase activity only to the extent of 40-50%. Even though the AgRP-induced decrease in cAMP levels is substantial, conventional assay methods, such as those described above, have limited sensitivity, precluding detecting small changes that are reversed by certain antagonists to AgRP. This limitation was circumvented by the use of a non-specific activator, forskolin, which directly activates adenylyl cyclase activity and raises cyclic AMP levels. Forskolin, a cell permeable diterpenoid initially isolated from Coleus forskohlii, has the ability to stimulate adenylyl cyclase activity and increase intracellular cAMP, thus activating cAMP-dependent protein kinase and other cAMP receptor proteins. See, e.g., Seamon, K. B., Daly, J. W. Forskolin: a unique diterpene activator of cyclic AMP-generating system. J. Cyclic Nucleotide Res. 7(4):201-24, 1981; Fradkin, J. E., Cook, G. H., Kilhoffer, M. C., Wolff, J. Forskolin stimulation of thyroid adenylate cyclase and cyclic 3′,5′-adenosine monophosphate accumulation. Endocrinology 111 (3):849-56, 1982; Barber, R., Goka, T. J. Adenylate cyclase activity as a function of forskolin concentration. J. Cyclic Nucleotide Protein Phosphor. Res. 10(1):23-9, 1985; and Laurenza, A., Sutkowski, E. M., Seamon, K. B. Forskolin: a specific stimulator of adenylyl cyclase or a diterpene with multiple sites of action? Trends Pharmacol. Sci. 10(11):442-7, 1989. […] The EC50 value was about 5 μM. AgRP inhibited the forskolin-induced response by 65% at a concentration of 10 nM. The difference in forskolin stimulated response and the inhibition due to AgRP in the cAMP levels was exploited to screen compounds for their ability to antagonize AgRP inhibition and […] levels of cAMP accumulation.
Experimental details for assays included incubating cells with the test compound in the presence of the inverse agonist AgRP with the extent of reversal of the AgRP effect measured by following the increase in the levels of intracellular cAMP. HEK-293 cells expressing MCR-4 were suspended in 10 mM HEPES/Earle's Balanced Salt Solution at pH 7.5 with the phosphodiesterase inhibitor IBMX, and pre-incubated for 30 minutes with the compounds (0.5-5000 nM). The cells were then treated with AgRP (10 nM) and incubated further for 30 minutes. The cells were then treated with forskolin (10 μM) and incubated for an additional 60 minutes. Cells were lysed and cAMP was measured by EIA kit (Amersham).

[12] = MC4-R membranes, Table 1, read-out: Ki (nM) I125-NPD-α-MSH
[13] = read-out: Ki (nM) (NDP-α-MSH) MC4-R
[14] = cAMP assay, read-out: EC50 (nM) at MC4-R
[15] = MC4-R membranes, Table 1, read-out: Ki (nM) I125-AgRP

| Compound | Ki [1] [nM] | Inhibition at 1 μM (NDP-α-MSH) MC1-R [1] [%] | Inhibition at 1 μM (NDP-α-MSH) MC4-R [2] [%] | Ki [2, 12] [nM] | attenuation of binding of α-MSH and AgRP to MC4-R [2] | Ki [2, 13] [nM] | functional status (pAg, Ag, Antag, Inactive) ([3]; MC4-R, Table 1) | intrinsic activity at MC4-R [3] | EC50 [3, 14] [nM] | Ki [4] [nM] | Inhibition at 1 μM (AgRP) MC4-R [5] [%] | Ki [5, 15] [nM] | Ki ([5]; read-out: Ki (nM) (AgRP) MC4-R) | Ki [6] [nM] | Ki [7] [nM] | Inhibition at 1 μM (NDP-α-MSH) MC1-R [7] [%] | functional status at MC3-R [8] | functional status at MC5-R [9] | EC50 ([3]; MC4-R, Table 1, read-out: EC50) [nM] | functional status at MC1-R [10] | further results |
| --- | --- | --- | --- | --- | --- | --- | --- | --- | --- | --- | --- | --- | --- | --- | --- | --- | --- | --- | --- | --- | --- |
| NCCCC[C@H]1C(=O)N(CCc2ccc3ccccc3c2)CCN1C(=O)[C@@H](Cc1ccc(Cl)cc1Cl)NC(=O)/C=C/c1ccccc1 [Example 21, (E)-N—[(R)-2-[(S)-2-(4-Amino-butyl)-4-(2-naphthalen-2-yl-ethyl)-3-oxo-piperazin-1-yl]-1-(2,4-dichloro-benzyl)-2-oxo-ethyl]-3-phenyl-acrylamide] | 502 | 30 | 96 | 6 | attenuate the binding of both α-MSH and AgRP to MC4-R | 6 | pAg (“pAg” means partial agonist) | 0.2 | 112 | 648 | 100 | 5 | 5 | 398 | – | – | – | – | – | – | Inhibition at 1 μM (NDP-α-MSH) MC3-R [4]: 46%; Inhibition at 1 μM (NDP-α-MSH) MC5-R [6]: 60% |
| C[C@@H]1CN(C(=O)[C@H](N)Cc2ccc3ccccc3c2)[C@@H](CCCNC(=N)N)CN1C(=O)CCCc1c[nH]c2ccccc12 [Example 7] | – | – | – | 90 | attenuate the binding of both α-MSH and AgRP to MC4-R | 90 | pAg (“pAg” means partial agonist) | 0.4 | > 3000 | 657 | 82 | 133 | 133 | 271 | 1200 | 0 | no intrinsic activity (intrinsic activity below 0.1 (10%) is classified as inactive or having no intrinsic activity) | no intrinsic activity (intrinsic activity below 0.1 (10%) is classified as inactive or having no intrinsic activity) | 3800 | no intrinsic activity (intrinsic activity below 0.1 (10%) is classified as inactive or having no intrinsic activity) | – |
| Forskolin [reference compound] | – | – | – | – | – | – | – | – | – | – | – | – | – | – | – | – | – | – | – | – | total response relative to NDP-α-MSH [11]: three-fold higher; EC50 ([11]; read-out: EC50 value (cAMP stimulation)): ~5000 nM |
| N=C(N)NCCC[C@H]1CN(C(=O)Cc2ccc3ccccc3c2)[C@H](Cc2ccccc2)CN1C[C@H](N)Cc1ccc2ccccc2c1 [Example 30, N-{3-[1-[2(R)-Amino-3-naphthalen-2-yl-propyl]-5(R)-benzyl-4-(2-naphthalen-2-yl-acetyl)-piperazin-2(S)-yl]-propyl}-guanidine] | 2770 | 32 | 92 | 55 | – | 61 | Inactive | – | – | 387 | – | 90 | 90 | 178 | – | – | – | – | – | – | functional status at MC4-R ([3]; cAMP assay): inactive; Inhibition at 1 μM (NDP-α-MSH) MC3-R [4]: 49%; Inhibition at 1 μM (NDP-α-MSH) MC5-R [6]: 87% |
| Cc1cc(Cl)ccc1C[C@@H](N)C(=O)N1C[C@@H](C)N(CCc2c[nH]c3ccccc23)C[C@@H]1CCCNC(=N)N [Example 10, N-(3-{1-(2(R)-Amino-(4-chloro-2-methyl-phenyl)-propionyl)-5(R)-methyl-4-[2-(1H-indol-3-yl)-ethyl]-piperazin-2(S)-yl}-propyl)-guanidine] | – | – | – | 5 | attenuate the binding of both α-MSH and AgRP to MC4-R | 5 | pAg (“pAg” means partial agonist) | 1 | > 7 | 177 | 97 | 5 | 5 | 360 | 1730 | 40 | no intrinsic activity (intrinsic activity below 0.1 (10%) is classified as inactive or having no intrinsic activity) | no intrinsic activity (intrinsic activity below 0.1 (10%) is classified as inactive or having no intrinsic activity) | 7 | no intrinsic activity (intrinsic activity below 0.1 (10%) is classified as inactive or having no intrinsic activity) | functional status at MC4-R ([3]; cAMP assay): partial agonists; also recorded: full agonist |
| C[C@@H]1CN(C(=O)[C@H](N)Cc2ccc3ccccc3c2)[C@@H](CCCNC(=N)N)CN1C(=O)Cc1c[nH]c2ccccc12 [Example 6, N-{3-[1-(2(R)-Amino-3-naphthalen-2-yl-propionyl)-4-(2-1H-indol-3-yl-acetyl)-5(R)-methyl-piperazin-2(S)-yl]-propyl}-guanidine] | – | – | – | 35 | attenuate the binding of both α-MSH and AgRP to MC4-R | 35 | pAg (“pAg” means partial agonist) | 0.2 | > 1000 | 1820 | 84 | 83 | 83 | 1530 | 315 | 20 | no intrinsic activity (intrinsic activity below 0.1 (10%) is classified as inactive or having no intrinsic activity) | partial agonist (intrinsic activity between 0.1 (10%) and 0.7 (70%) is classified as a partial agonist) | > 1000 | no intrinsic activity (intrinsic activity below 0.1 (10%) is classified as inactive or having no intrinsic activity) | – |
